Source: publication PMC9558053, “Development of a novel high-throughput screen for the identification of new inhibitors of protein S-acylation” (The Journal of Biological Chemistry, 2022)

Molecular target: T1, human zDHHC2 (Homo sapiens, UniProt Q9UIJ5)
T1 construct: expressed in transfected cells; host or cells: HEK293T
T1 sequence (Q9UIJ5 1-367): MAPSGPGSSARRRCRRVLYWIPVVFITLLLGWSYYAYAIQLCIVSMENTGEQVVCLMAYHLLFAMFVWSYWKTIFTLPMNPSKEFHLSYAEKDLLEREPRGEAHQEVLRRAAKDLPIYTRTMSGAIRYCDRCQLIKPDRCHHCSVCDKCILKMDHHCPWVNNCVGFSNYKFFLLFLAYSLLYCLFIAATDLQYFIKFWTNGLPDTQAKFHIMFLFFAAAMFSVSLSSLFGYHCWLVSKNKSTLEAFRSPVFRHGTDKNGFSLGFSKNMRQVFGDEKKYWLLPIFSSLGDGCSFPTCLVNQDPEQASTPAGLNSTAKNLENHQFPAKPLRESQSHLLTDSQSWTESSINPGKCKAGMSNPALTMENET
Test: S-acylation (autoacylation) of HA-zDHHC2 in HEK293T cells, click chemistry
Assay type: cell-based
Settings: resynthesized UoS compounds, 25 μM, p < 0.001 vs DMSO
Description: Figure 8 Activity of TTZ-1 (UoS) and TTZ-2 (UoS) against human zDHHC2 autoacylation expressed in mammalian cells. HEK293T cells were transfected with either the control plasmid pEF-BOS-HA (pEF) or a plasmid encoding HA-tagged human zDHHC2 (zD2) for 24 h. Cells were then preincubated for 4 h with UoS compounds TTZ-1 (UoS) (A) or TTZ-2 (UoS) (B) (25 μM final) or DMSO control before metabolic labeling with 100 μM C16:0-azide for 4 h. Cells were lysed, and proteins having incorporated C16:0-azide were labeled by click chemistry with an alkyne-IR800 dye. Protein samples were then resolved by SDS-PAGE, and the gel was scanned for the detection of the click chemistry signal in the infrared-800 channel. […] Two independent experiments were performed in sextuplicate, and the quantification data were gathered on the graphs below each set of membranes. […]
HEK293T cells were plated on poly-D-lysine–coated 24-well plates (catalog no.: 356413; Corning BioCoat, VWR) and transfected with 2.4 μg of pEF-zDHHC2 plasmid (or the control empty plasmid pEF-BOS-HA) for the measurement of zDHHC2 autoacylation and 4.8 μl of Lipofectamine 2000 (Invitrogen). […] Membranes were first stained with Revert 700 total protein stain kit (catalog no.: 926-11016; LI-COR), imaged, destained, and then analyzed by immunoblotting. Signals were quantified with ImageStudio software (LI-COR). […]

Structure (SMILES)	S-acylation of HA-zDHHC2 in HEK293T cells
O=C(Nc1cccc2c1OC(c1nnn[nH]1)CN2)c1ccc(OCCCCc2ccccc2)cc1 (centres unmarked) [TTZ-2, N-(2-(1H-Tetrazol-5-yl)-3,4-dihydro-2H-benzo[b][1,4]oxazin-8-yl)-4-(4-phenylbutoxy)benzamide]	significantly reduced
CCCCCCCOc1ccc(C(=O)Nc2cccc3c2OC(c2nnn[nH]2)CN3)cc1 (centres unmarked) [TTZ-1, N-(2-(1H-Tetrazol-5-yl)-3,4-dihydro-2H-benzo[b][1,4]oxazin-8-yl)-4-(heptyloxy)benzamide]	significantly reduced
